Measurements taken from ChEMBL document CHEMBL4219122, “Synthesis and biological evaluation of histone deacetylase and DNA topoisomerase II-Targeted inhibitors” (Bioorg Med Chem, 2018).
The source made the active and inactive calls. No cut-off for these calls is given here.

What was measured:
[1] = system: MCF7; experiment: Growth inhibition of human MCF7 cells after 48 hrs by sulforhodamine B-based colorimetric assay; assay type: functional, cell-based; conditions: MCF7, 48 h; for GI50: read-out: GI50
[2] = system: DU-145; experiment: Growth inhibition of human DU145 cells after 48 hrs by sulforhodamine B-based colorimetric assay; assay type: functional, cell-based; conditions: DU-145, 48 h; for GI50: read-out: GI50
[3] = molecular target: T1, Histone deacetylase 1 (Homo sapiens, UniProt Q13547); experiment: Inhibition of recombinant human HDAC1 expressed in HEK293T cells at 10 uM using Ac-KGLGK(Ac)-MCA as substrate after 30 mins in presence of DTT by fluorescence assay
T1 sequence (Q13547 whole entry): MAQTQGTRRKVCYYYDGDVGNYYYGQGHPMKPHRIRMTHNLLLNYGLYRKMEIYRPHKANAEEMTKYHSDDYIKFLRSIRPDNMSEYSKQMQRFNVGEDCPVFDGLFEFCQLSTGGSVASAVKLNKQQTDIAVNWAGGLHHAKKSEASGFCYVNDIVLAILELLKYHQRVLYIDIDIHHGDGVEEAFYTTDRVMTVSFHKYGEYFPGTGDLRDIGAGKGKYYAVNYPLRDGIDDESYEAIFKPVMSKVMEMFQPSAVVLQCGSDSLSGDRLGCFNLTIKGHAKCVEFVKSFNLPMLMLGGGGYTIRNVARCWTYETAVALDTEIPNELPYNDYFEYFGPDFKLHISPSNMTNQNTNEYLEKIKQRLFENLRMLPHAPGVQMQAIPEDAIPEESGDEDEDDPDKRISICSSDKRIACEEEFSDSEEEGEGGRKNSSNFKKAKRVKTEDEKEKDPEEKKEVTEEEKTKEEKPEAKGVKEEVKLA

[4] = system: HCT-116; experiment: Growth inhibition of human HCT116 cells after 48 hrs by sulforhodamine B-based colorimetric assay; assay type: functional, cell-based; conditions: HCT-116, 48 h; for GI50: read-out: GI50
[5] = molecular target: T1, Histone deacetylase 1; experiment: Inhibition of recombinant human HDAC1 expressed in HEK293T cells using Ac-KGLGK(Ac)-MCA as substrate after 30 mins in presence of DTT by fluorescence assay
[6] = molecular target: T2, Protein deacetylase HDAC6 (Mus musculus, UniProt Q9Z2V5); experiment: Inhibition of recombinant mouse HDAC6 expressed in HEK293T cells co-expressing mouse HDA2 using Ac-KGLGK(Ac)-MCA as substrate after 30 mins in presence of DTT by fluorescence assay
T2 sequence (Q9Z2V5 whole entry): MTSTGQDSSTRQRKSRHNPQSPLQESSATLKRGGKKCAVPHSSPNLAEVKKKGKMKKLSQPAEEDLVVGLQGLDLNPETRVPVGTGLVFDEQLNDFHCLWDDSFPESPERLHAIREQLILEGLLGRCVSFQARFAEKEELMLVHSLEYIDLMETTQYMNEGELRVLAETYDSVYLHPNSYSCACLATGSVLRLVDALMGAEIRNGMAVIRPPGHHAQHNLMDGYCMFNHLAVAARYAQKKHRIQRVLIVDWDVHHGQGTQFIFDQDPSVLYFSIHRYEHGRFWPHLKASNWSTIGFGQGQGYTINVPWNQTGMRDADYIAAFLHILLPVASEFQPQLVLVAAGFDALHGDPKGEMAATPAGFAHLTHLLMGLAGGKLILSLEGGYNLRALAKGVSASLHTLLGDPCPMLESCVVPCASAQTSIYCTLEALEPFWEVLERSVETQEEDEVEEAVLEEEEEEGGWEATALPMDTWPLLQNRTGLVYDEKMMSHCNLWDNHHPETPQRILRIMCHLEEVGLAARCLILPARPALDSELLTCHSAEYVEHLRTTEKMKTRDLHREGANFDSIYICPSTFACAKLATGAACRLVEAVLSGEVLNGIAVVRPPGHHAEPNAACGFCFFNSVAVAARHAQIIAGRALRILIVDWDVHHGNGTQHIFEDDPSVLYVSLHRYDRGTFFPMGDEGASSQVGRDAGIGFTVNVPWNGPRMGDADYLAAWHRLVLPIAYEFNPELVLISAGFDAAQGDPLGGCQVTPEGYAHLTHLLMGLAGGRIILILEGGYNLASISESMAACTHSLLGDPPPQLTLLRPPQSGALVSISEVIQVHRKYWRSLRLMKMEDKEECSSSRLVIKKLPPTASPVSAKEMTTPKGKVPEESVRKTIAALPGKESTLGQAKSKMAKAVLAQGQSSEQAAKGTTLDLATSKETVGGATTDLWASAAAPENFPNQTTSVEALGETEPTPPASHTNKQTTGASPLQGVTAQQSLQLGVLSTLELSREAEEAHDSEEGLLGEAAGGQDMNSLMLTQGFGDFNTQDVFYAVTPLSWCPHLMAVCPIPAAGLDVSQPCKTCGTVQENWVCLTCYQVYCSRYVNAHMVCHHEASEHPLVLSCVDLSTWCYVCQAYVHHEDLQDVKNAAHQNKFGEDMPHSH

[7] = molecular target: T3, DNA topoisomerase 2-alpha (Homo sapiens, UniProt P11388); experiment: Inhibition of human placenta topoisomerase 2alpha assessed as reduction in pBR322 supercoiled DNA relaxation after 30 mins by ethidium bromide staining based agarose gel electrophoresis
T3 sequence (P11388 whole entry): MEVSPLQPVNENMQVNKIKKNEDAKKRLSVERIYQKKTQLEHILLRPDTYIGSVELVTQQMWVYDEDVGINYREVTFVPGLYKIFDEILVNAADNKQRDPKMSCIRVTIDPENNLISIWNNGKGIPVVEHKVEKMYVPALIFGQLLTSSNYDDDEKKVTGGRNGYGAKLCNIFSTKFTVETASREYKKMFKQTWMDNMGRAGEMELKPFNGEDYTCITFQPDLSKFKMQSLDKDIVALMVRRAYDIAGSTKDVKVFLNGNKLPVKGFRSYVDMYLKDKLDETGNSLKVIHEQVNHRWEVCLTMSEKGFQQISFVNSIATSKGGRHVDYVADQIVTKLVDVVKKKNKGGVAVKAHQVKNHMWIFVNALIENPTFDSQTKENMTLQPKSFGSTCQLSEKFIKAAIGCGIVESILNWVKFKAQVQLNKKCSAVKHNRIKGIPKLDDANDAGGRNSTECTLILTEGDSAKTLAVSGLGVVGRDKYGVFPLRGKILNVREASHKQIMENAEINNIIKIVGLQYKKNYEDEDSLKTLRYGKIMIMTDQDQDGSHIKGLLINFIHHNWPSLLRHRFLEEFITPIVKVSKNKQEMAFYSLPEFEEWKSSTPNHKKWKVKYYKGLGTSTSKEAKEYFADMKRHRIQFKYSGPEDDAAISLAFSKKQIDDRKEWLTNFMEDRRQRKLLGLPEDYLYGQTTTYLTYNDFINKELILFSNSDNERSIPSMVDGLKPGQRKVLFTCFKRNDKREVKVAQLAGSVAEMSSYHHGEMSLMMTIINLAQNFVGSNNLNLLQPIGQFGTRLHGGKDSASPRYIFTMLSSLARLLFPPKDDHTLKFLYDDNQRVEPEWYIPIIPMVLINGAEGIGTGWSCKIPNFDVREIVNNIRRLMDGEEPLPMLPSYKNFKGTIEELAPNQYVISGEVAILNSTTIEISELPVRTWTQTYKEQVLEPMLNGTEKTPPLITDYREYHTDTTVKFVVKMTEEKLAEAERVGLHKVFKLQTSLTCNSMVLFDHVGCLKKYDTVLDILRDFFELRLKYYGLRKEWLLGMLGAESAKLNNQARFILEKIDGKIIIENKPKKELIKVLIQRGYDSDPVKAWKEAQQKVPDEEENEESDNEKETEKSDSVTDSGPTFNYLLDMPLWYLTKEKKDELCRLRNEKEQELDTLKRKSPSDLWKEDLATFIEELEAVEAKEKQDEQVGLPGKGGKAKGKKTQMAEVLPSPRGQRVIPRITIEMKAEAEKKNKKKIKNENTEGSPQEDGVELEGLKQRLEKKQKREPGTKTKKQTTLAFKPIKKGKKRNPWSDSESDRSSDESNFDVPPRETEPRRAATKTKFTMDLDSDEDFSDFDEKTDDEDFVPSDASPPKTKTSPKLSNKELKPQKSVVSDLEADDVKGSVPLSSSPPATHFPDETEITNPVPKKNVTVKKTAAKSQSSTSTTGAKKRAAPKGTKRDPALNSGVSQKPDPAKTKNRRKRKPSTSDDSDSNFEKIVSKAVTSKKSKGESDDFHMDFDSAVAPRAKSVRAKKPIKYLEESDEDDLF

[8] = molecular target: T3, DNA topoisomerase 2-alpha; experiment: Inhibition of human topoisomerase-2 alpha-mediated kinetoplast DNA decatenation at 200 uM after 30 mins by ethidium bromide staining based agarose gel electrophoresis

SMILES	GI50 [1] [µM]	IC50 [5] [µM]	IC50 [6] [µM]	GI50 [2] [µM]	GI50 [4] [µM]	IC50 [7] [µM]	also measured
Cc1cn([C@H]2C[C@H](C3(c4ccc(NC(=O)CCCCCCC(=O)O)cc4)SCCCS3)[C@@H](CO[Si](C)(C)C(C)(C)C)O2)c(=O)[nH]c1=O	–	–	–	–	–	–	IC50 [1]: 12.3 µM; IC50 [2]: 15.5 µM; inhibition [3]: inactive; IC50 [4]: 12.3 µM
Cc1cn([C@H]2C[C@H](C3(c4ccc(NC(=O)CCCCC(=O)NO)cc4)SCCCS3)[C@@H](CO[Si](C)(C)C(C)(C)C)O2)c(=O)[nH]c1=O	5.5	2.5	0.56	14.8	26.3	–	–
Cc1cn([C@H]2C[C@H](C3(c4ccc(NC(=O)CCCCCC(=O)NO)cc4)SCCCS3)[C@@H](CO[Si](C)(C)C(C)(C)C)O2)c(=O)[nH]c1=O	15.4	0.9	0.11	20.9	17.4	–	–
COc1ccc(C2([C@H]3C[C@H](n4cc(C)c(=O)[nH]c4=O)O[C@@H]3CO[Si](C)(C)C(C)(C)C)SCCCS2)cc1OC	3.31	> 10	> 10	3.72	3.63	19.1	–
COc1ccc(C2([C@H]3CC(=O)O[C@@H]3CO[Si](C)(C)C(C)(C)C)SCCCS2)cc1OC	–	–	–	–	–	55.3	–
COc1cc([C@@H]2c3cc4c(cc3[C@@H](O[C@@H]3O[C@@H]5CO[C@@H](C)O[C@H]5[C@H](O)[C@H]3O)[C@H]3COC(=O)[C@H]23)OCO4)cc(OC)c1O	–	–	–	–	–	–	inhibition [8]: Active
Cc1cn([C@@H]2C[C@H](C3(c4ccc(NC(=O)CCCCC(=O)NO)cc4)SCCCS3)[C@@H](CO[Si](C)(C)C(C)(C)C)O2)c(=O)[nH]c1=O	5.37	2.8	0.59	49	26.3	–	–
CC(C)(C)[Si](C)(C)OC[C@H]1OC(=O)C[C@@H]1C1(c2ccccc2)SCCCS1	–	–	–	–	–	26.1	–
CC(/C=C/C(=O)NO)=C\C(C)C(=O)c1ccc(C2([C@H]3CC(=O)O[C@@H]3CO[Si](C)(C)C(C)(C)C)SCCCS2)cc1 (stereo not given in full)	–	1.2	–	–	–	3	–
Cc1cn([C@@H]2C[C@H](C3(c4ccc(NC(=O)CCCCCC(=O)NO)cc4)SCCCS3)[C@@H](CO[Si](C)(C)C(C)(C)C)O2)c(=O)[nH]c1=O	17.8	0.59	0.081	28.8	14.8	–	–
